Our source for the EC50 and Emax values is patent US10519154B2, “7-substituted 1-pyridyl-naphthyridine-3-carboxylic acid amides and use thereof” (Bayer Pharma Aktiengesellschaft, priority 2016, dated 2019).

This test has as its target T1, human M2 receptor (Homo sapiens, UniProt P08172).
T1 sequence (P08172 1-466): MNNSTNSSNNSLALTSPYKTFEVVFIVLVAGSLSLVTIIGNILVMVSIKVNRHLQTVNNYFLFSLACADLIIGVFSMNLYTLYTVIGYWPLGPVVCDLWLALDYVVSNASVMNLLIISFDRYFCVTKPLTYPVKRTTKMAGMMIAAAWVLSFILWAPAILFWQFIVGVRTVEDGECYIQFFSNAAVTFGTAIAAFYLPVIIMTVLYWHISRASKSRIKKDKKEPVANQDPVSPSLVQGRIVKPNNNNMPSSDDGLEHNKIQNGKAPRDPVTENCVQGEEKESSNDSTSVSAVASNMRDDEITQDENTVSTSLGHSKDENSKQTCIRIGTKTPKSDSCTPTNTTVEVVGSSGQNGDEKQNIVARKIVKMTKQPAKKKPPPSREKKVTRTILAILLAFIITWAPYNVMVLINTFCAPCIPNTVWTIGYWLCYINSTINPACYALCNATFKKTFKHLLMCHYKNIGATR
The experiment in a line: Functional M2-GIRK1/4 activation test: allosteric potency (EC50) and efficiency. The note with it: for EC50: Receptor activity EC50, CHO-DUKX-M2-GIRK cells, acetylcholine at EC20, in some cases mean of two or more determinations; for Emax: read-out: Efficiency, boosting of the acetylcholine effect at EC20 acetylcholine concentration, CHO-DUKX-M2-GIRK cells.

In general, EC50 refers to the concentration giving half of the maximal effect. A lower EC50 goes with greater potency. Turning to `O=C(N[C@@H](C1CC1)C(F)(F)F)c1cn(-c2ncc(F)cc2F)c2nc(N3C[C@@H](O)[C@@H](O)C3)ccc2c1=O` [Example 62, N-[(1S)-1-Cyclopropyl-2,2,2-trifluoroethyl]-1-(3,5-difluoropyridin-2-yl)-7-[(3R,4S)-3,4-dihydroxypyrrolidin-1-yl]-4-oxo-1,4-dihydro-1,8-naphthyridine-3-carboxamide], the midpoint of the response, the EC50, lay at 0.22 µM and the Emax was found to be 100%.

Consider `O=C(N[C@@H](C1CC1)C(F)(F)F)c1cn(-c2ncc(F)cc2F)c2nc(N3C[C@@H](O)[C@H](O)C3)ccc2c1=O` [Example 63, N-[(1S)-1-Cyclopropyl-2,2,2-trifluoroethyl]-1-(3,5-difluoropyridin-2-yl)-7-[(3R,4R)-3,4-dihydroxypyrrolidin-1-yl]-4-oxo-1,4-dihydro-1,8-naphthyridine-3-carboxamide], for which the EC50 stood at 0.17 µM and the Emax was 100%.

With `O=C(N[C@H](C1CC1)C(F)(F)F)c1cn(-c2ncc(F)cc2F)c2nc(N3CCNC3=O)ccc2c1=O` [Example 65, N-[(1R)-1-Cyclopropyl-2,2,2-trifluoroethyl]-1-(3,5-difluoropyridin-2-yl)-4-oxo-7-(2-oxoimidazolidin-1-yl)-1,4-dihydro-1,8-naphthyridine-3-carboxamide], a half-maximal response (EC50) required 0.087 µM and the Emax is 100%.

For the compound `O=C(Nc1c(Cl)cccc1Cl)c1cn(-c2ncc(F)cc2F)c2nc(N3C[C@@H](O)[C@@H](O)C3)ccc2c1=O` [Example 66, N-(2,6-Dichlorophenyl)-1-(3,5-difluoropyridin-2-yl)-7-[(3R,4S)-3,4-dihydroxypyrrolidin-1-yl]-4-oxo-1,4-dihydro-1,8-naphthyridine-3-carboxamide], the response was half-maximal at 0.31 µM (EC50) and the Emax stood at 92.5%.

With `O=C(Nc1c(Cl)cccc1Cl)c1cn(-c2ncc(F)cc2F)c2nc(N3C[C@H](O)[C@@H](O)C3)ccc2c1=O` [Example 68, N-(2,6-Dichlorophenyl)-1-(3,5-difluoropyridin-2-yl)-7-[(3S,4S)-3,4-dihydroxypyrrolidin-1-yl]-4-oxo-1,4-dihydro-1,8-naphthyridine-3-carboxamide], the midpoint of the response, the EC50, lay at 0.195 µM and the Emax was 96%.

With `CC[C@@H](NC(=O)c1cn(-c2ncc(F)cc2F)c2nc(NCC(F)F)ccc2c1=O)C(F)(F)F` [Example 70, 7-[(2,2-Difluoroethyl)amino]-1-(3,5-difluoropyridin-2-yl)-4-oxo-N-[(2R)-1,1,1-trifluorobutan-2-yl]-1,4-dihydro-1,8-naphthyridine-3-carboxamide], the EC50 was found to be 0.22 µM and the Emax came to 91%.

As for `CC[C@@H](NC(=O)c1cn(-c2ncc(F)cc2F)c2nc(N3CCOCC3)ccc2c1=O)C(F)(F)F` [Example 71, 1-(3,5-Difluoropyridin-2-yl)-7-(morpholin-4-yl)-4-oxo-N-[(2R)-1,1,1-trifluorobutan-2-yl]-1,4-dihydro-1,8-naphthyridine-3-carbonxamide], the EC50 amounted to 0.36 µM and the Emax amounted to 97.5%.

Turning to `CC[C@@H](NC(=O)c1cn(-c2ncc(F)cc2F)c2nc(N3CCCC(F)(F)C3)ccc2c1=O)C(F)(F)F` [Example 72, 7-(3,3-Difluoropiperidin-1-yl)-1-(3,5-difluoropyridin-2-yl)-4-oxo-N-[(2R)-1,1,1-trifluorobutan-2-yl]-1,4-dihydro-1,8-naphthyridine-3-carboxamide], it took 0.045 µM to reach a half-maximal effect (EC50) and the Emax came to 90%.

Turning to `CC(C)C[C@@H](NC(=O)c1cn(-c2ncc(F)cc2F)c2nc(N3C[C@@H](O)CC3=O)ccc2c1=O)C(F)(F)F` [Example 74, 1-(3,5-Difluoropyridin-2-yl)-7-[(4S)-4-hydroxy-2-oxopyrrolidin-1-yl]-4-oxo-N-[(2R)-1,1,1-trifluoro-4-methylpentan-2-yl]-1,4-dihydro-1,8-naphthyridine-3-carboxamide], a half-maximal effect (EC50) was put at 0.014 µM and the Emax came out at 100%.

In the case of `CC(C)C[C@H](NC(=O)c1cn(-c2ncc(F)cc2F)c2nc(N3C[C@@H](O)CC3=O)ccc2c1=O)C(F)(F)F` [Example 75, 1-(3,5-Difluoropyridin-2-yl)-7-[(4S)-4-hydroxy-2-oxopyrrolidin-1-yl]-4-oxo-N-[(2S)-1,1,1-trifluoro-4-methylpentan-2-yl]-1,4-dihydro-1,8-naphthyridine-3-carboxamide], a half-maximal response (EC50) required 0.019 µM and the Emax is 100%.

Turning to `O=C(NC1(C(F)(F)F)CCCC1)c1cn(-c2ncc(F)cc2F)c2nc(N3C[C@@H](O)CC3=O)ccc2c1=O` [Example 79, 1-(3,5-Difluoropyridin-2-yl)-7-[(4S)-4-hydroxy-2-oxopyrrolidin-1-yl]-4-oxo-N-[1-(trifluoromethyl)cyclopentyl]-1,4-dihydro-1,8-naphthyridine-3-carboxamide], the EC50 was 0.054 µM and the Emax turned out to be 100%.

As to `CC(C)(CC(F)(F)F)NC(=O)c1cn(-c2ncc(F)cc2F)c2nc(N3C[C@@H](O)CC3=O)ccc2c1=O` [Example 80, 1-(3,5-Difluoropyridin-2-yl)-7-[(4S)-4-hydroxy-2-oxopyrrolidin-1-yl]-4-oxo-N-(4,4,4-trifluoro-2-methylbutan-2-yl)-1,4-dihydro-1,8-naphthyridine-3-carboxamide], the response was half-maximal at 0.12 µM (EC50) and the Emax worked out at 100%.

For `CC(C)C[C@@H](NC(=O)c1cn(-c2ncc(F)cc2F)c2nc(N3C[C@@H](O)[C@H](O)C3)ccc2c1=O)C(F)(F)F` [Example 81, 1-(3,5-Difluoropyridin-2-yl)-7-[(3R,4R)-3,4-dihydroxypyrrolidin-1-yl]-4-oxo-N-[(2R)-1,1,1-trifluoro-4-methylpentan-2-yl]-1,4-dihydro-1,8-naphthyridine-3-carboxamide], the EC50 amounted to 0.015 µM and the Emax was found to be 100%.

For `CC(C)C[C@H](NC(=O)c1cn(-c2ncc(F)cc2F)c2nc(N3C[C@@H](O)[C@H](O)C3)ccc2c1=O)C(F)(F)F` [Example 82, 1-(3,5-Difluoropyridin-2-yl)-7-[(3R,4R)-3,4-dihydroxypyrrolidin-1-yl]-4-oxo-N-[(2S)-1,1,1-trifluoro-4-methylpentan-2-yl]-1,4-dihydro-1,8-naphthyridine-3-carboxamide], the midpoint of the response, the EC50, lay at 0.028 µM and the Emax came to 100%.

As for `CC(C)(C)[C@@H](NC(=O)c1cn(-c2ncc(F)cc2F)c2nc(N3C[C@@H](O)[C@H](O)C3)ccc2c1=O)C(F)(F)F` [Example 86, 1-(3,5-Difluoropyridin-2-yl)-7-[(3R,4R)-3,4-dihydroxypyrrolidin-1-yl]-4-oxo-N-[(2R)-1,1,1-trifluoro-3,3-dimethylbutan-2-yl]-1,4-dihydro-1,8-naphthyridine-3-carboxamide], the EC50 worked out at 0.019 µM and the Emax is 100%.

Take `O=C(NC1(C(F)(F)F)CCCC1)c1cn(-c2ncc(F)cc2F)c2nc(N3C[C@@H](O)[C@H](O)C3)ccc2c1=O` [Example 87, 1-(3,5-Difluoropyridin-2-yl)-7-[(3R,4R)-3,4-dihydroxypyrrolidin-1-yl]-4-oxo-N-[1-(trifluoromethyl)cyclopentyl]-1,4-dihydro-1,8-naphthyridine-3-carboxamide]: the EC50 came to 0.063 µM and the Emax worked out at 100%.

With `CC(C)(CC(F)(F)F)NC(=O)c1cn(-c2ncc(F)cc2F)c2nc(N3C[C@@H](O)[C@H](O)C3)ccc2c1=O` [Example 91, 1-(3,5-Difluoropyridin-2-yl)-7-[(3R,4R)-3,4-dihydroxypyrrolidin-1-yl]-4-oxo-N-(4,4,4-trifluoro-2-methylbutan-2-yl)-1,4-dihydro-1,8-naphthyridine-3-carboxamide], the EC50 worked out at 0.28 µM and the Emax was found to be 99%.

As for `CC(C)(C)[C@H](NC(=O)c1cn(-c2ncc(F)cc2F)c2nc(N3C[C@@H](O)[C@H](O)C3)ccc2c1=O)C(F)(F)F` [Example 99, 1-(3,5-Difluoropyridin-2-yl)-7-[(3R,4R)-3,4-dihydroxypyrrolidin-1-yl]-4-oxo-N-[(2S)-1,1,1-trifluoro-3,3-dimethylbutan-2-yl]-1,4-dihydro-1,8-naphthyridine-3-carboxamide], the midpoint of the response, the EC50, lay at 0.038 µM and the Emax came to 100%.

Consider `CC(C)(C)[C@H](NC(=O)c1cn(-c2ncc(F)cc2F)c2nc(N3CCNC3=O)ccc2c1=O)C(F)(F)F` [Example 100, 1-(3,5-Difluoropyridin-2-yl)-4-oxo-7-(2-oxoimidazolidin-1-yl)-N-[(2S)-1,1,1-trifluoro-3,3-dimethylbutan-2-yl]-1,4-dihydro-1,8-naphthyridine-3-carboxamide], for which the midpoint of the response, the EC50, lay at 0.026 µM and the Emax came to 100%.

For the compound `O=C(NC12CC(C1)C2)c1cn(-c2ncc(F)cc2F)c2nc(N3C[C@@H](O)CC3=O)ccc2c1=O` [Example 101, N-(Bicyclo[1.1.1]pent-1-yl)-1-(3,5-difluoropyridin-2-yl)-7-[(4S)-4-hydroxy-2-oxopyrrolidin-1-yl]-4-oxo-1,4-dihydro-1,8-naphthyridine-3-carboxamide], the EC50 came to 0.585 µM and the Emax came to 78.5%.

Turning to `O=C(NC12CC(F)(C1)C2)c1cn(-c2ncc(F)cc2F)c2nc(N3C[C@@H](O)CC3=O)ccc2c1=O` [Example 102, 1-(3,5-Difluoropyridin-2-yl)-N-(3-fluorobicyclo[1.1.1]pent-1-yl)-7-[(4S)-4-hydroxy-2-oxopyrrolidin-1-yl]-4-oxo-1,4-dihydro-1,8-naphthyridine-3-carboxamide], the EC50 turned out to be 1.06 µM and the Emax was determined as 89%.
